From patent US20080146593A1, “Substituted 5-Phenyl Pyrimidines I In Therapy” (Basf Aktiengesellschaft, priority 2005, published 2008)

Tested on: HeLa cells
Assay: Measurement of the cell cycle inhibition in HeLa cells
Format: cell-based
Settings: HeLa B cells, 20 h incubation with compound; FACS ratio G0/G1 to G2/M vs DMSO; concentration at which 50% of cells are in cell cycle arrest
Experimental: Measurement of the Cell Cycle Inhibition in HeLa Cells—Test Procedure:
HeLa B cells are grown in DMEM (Life Technologies Cat No 21969-035) supplemented with 10% Fetal Calf Serum (FCS, Life Technologies Cat No 10270-106) in 180 cm^2 Flasks at 37° C., 92% humidity and 7% CO2.
Cells are seeded at 5×10^4 cells per well in a 24-well plate. Twenty hours later the compounds are added such that the final concentration is 1×10^−6, 3.3×10^−7, 1.1×10^−7, 3.7×10^−8, 1.2×10^−8 and 1×10^−9 M in a final volume of 500 μl. DMSO alone is added to 6 wells as a control. Cells are incubated with the compounds as above for 20 h. Then cells are observed under the microscope to check for cell death, and the 24-well plate is then centrifuged at 1200 rpm for 5 min at 20° C., acceleration position 7 and break position 5 (Eppendorf centrifuge 5804R).
The supernatant is removed and the cells lysed with 0.5 ml RNase Buffer (10 mM NaCitrate, 0.1% Nonidet NP40, 50 μg/ml RNase, 10 μg/ml Propidium iodide) per well. The plates are then incubated for at least 30 min in the dark at RT and the samples then transferred to FACS tubes. Samples are measured in a FACS machine (Beckton Dickinson) at the following settings:
Instrument Settings of the FACS Calibur:
The ratio of cells in G0/G1-phase to G2/M phase is calculated and compared to the value for the controls (DMSO) only. Results are given in table 2 as the IC50 value calculated from the concentration curve plotted against the cell cycle ratio and indicate the compound concentration at which 50% of cells are in cell cycle arrest after treatment with the compound.

IC50 [nM] | SMILES
4.8 | C[C@H](Nc1nc(-n2cccn2)nc(Cl)c1-c1c(F)cc(F)cc1F)C(F)(F)F [Example 1]
48 | CC(C)Nc1nc(-c2ccccn2)nc(Cl)c1-c1c(F)cc(F)cc1F [Example 2]
31 | Cc1nn(-c2nc(Cl)c(-c3c(F)cc(F)cc3F)c(N[C@@H](C)C(F)(F)F)n2)c(C)c1Cl [Example 3]
41 | C[C@H](Nc1nc(-n2ccc(-c3ccccc3)n2)nc(Cl)c1-c1c(F)cc(F)cc1F)C(F)(F)F [Example 4]
4.6 | CC(C)c1ccn(-c2nc(Cl)c(-c3c(F)cc(F)cc3F)c(N[C@@H](C)C(F)(F)F)n2)n1 [Example 5]
17 | C[C@H](Nc1nc(-n2ccc(C(F)(F)F)n2)nc(Cl)c1-c1c(F)cc(F)cc1F)C(F)(F)F [Example 6]
21 | C[C@H](Nc1nc(-n2nccc2[N+](=O)[O-])nc(Cl)c1-c1c(F)cc(F)cc1F)C(F)(F)F [Example 7]
13 | C[C@H](Nc1nc(-n2cncn2)nc(Cl)c1-c1c(F)cc(F)cc1F)C(F)(F)F [Example 8]
13 | C[C@H](Nc1nc(N(C)N)nc(Cl)c1-c1c(F)cc(F)cc1F)C(F)(F)F [Example 9]
47 | C[C@H](Nc1nc(C#N)nc(Cl)c1-c1c(F)cc(F)cc1F)C(F)(F)F [Example 10]
42 | Cc1cccc(-c2nc(Cl)c(-c3c(F)cc(F)cc3F)c(NC(C)C)n2)n1 [Example 11]
6.9 | C[C@H](Nc1nc(-c2ccccn2)nc(Cl)c1-c1c(F)cc(F)cc1F)C(F)(F)F [Example 12]
16 | Cc1cccc(-c2nc(Cl)c(-c3c(F)cc(F)cc3F)c(N[C@@H](C)C(F)(F)F)n2)n1 [Example 13]
14 | Cc1ccnc(-c2nc(Cl)c(-c3c(F)cc(F)cc3F)c(N[C@@H](C)C(F)(F)F)n2)c1 [Example 14]
43 | Cc1ccnc(-c2nc(Cl)c(-c3c(F)cc(F)cc3F)c(NC(C)C)n2)c1 [Example 15]
46 | CC(C)Nc1nc(-n2ccc(C(F)(F)F)n2)nc(Cl)c1-c1c(F)cc(F)cc1F [Example 16]
45 | CC(C)Nc1nc(-n2cc(Br)cn2)nc(Cl)c1-c1c(F)cc(F)cc1F [Example 17]
39 | Cc1ccn(-c2nc(Cl)c(-c3c(F)cc(F)cc3F)c(NC(C)C)n2)n1 [Example 18]
16 | CC(C)Nc1nc(-n2cc(Br)cn2)nc(Cl)c1-c1c(F)cccc1Cl [Example 19]
39 | Cc1ccn(-c2nc(Cl)c(-c3c(F)cccc3Cl)c(NC(C)C)n2)n1 [Example 20]
25 | Cc1cc(C)n(-c2nc(Cl)c(-c3c(F)cc(F)cc3F)c(NC(C)C)n2)n1 [Example 21]

IC50 [nM] | SMILES
32 | CC(C)Nc1nc(-n2ccc(C(C)C)n2)nc(Cl)c1-c1c(F)cc(F)cc1F [Example 22]
39 | CC(C)Nc1nc(-n2nccc2[N+](=O)[O-])nc(Cl)c1-c1c(F)cc(F)cc1F [Example 23]
50 | Cc1cnn(-c2nc(Cl)c(-c3c(F)cc(F)cc3F)c(NC(C)C)n2)c1 [Example 24]
3.5 | C[C@H](Nc1nc(-c2cnccn2)nc(Cl)c1-c1c(F)cc(F)cc1F)C(F)(F)F [Example 27]
25 | C[C@H](Nc1nc(-n2cc(I)cn2)nc(Cl)c1-c1c(F)cc(F)cc1F)C(F)(F)F [Example 34]
36 | C[C@H](Nc1nc(-n2cc(Cl)cn2)nc(Cl)c1-c1c(F)cc(F)cc1F)C(F)(F)F [Example 35]
24 | C[C@H](Nc1nc(-n2ccc(Br)n2)nc(Cl)c1-c1c(F)cc(F)cc1F)C(F)(F)F [Example 38]
38 | CC(C)[C@@H](C)Nc1nc(-n2cccn2)nc(Cl)c1-c1c(F)cccc1Cl [Example 46]
13 | CC(C)[C@@H](C)Nc1nc(-n2cncn2)nc(Cl)c1-c1c(F)cccc1Cl [Example 48]
9.1 | CC(C)[C@@H](C)Nc1nc(-n2ccnn2)nc(Cl)c1-c1c(F)cccc1Cl [Example 50]
5.8 | CC(Nc1nc(-n2ccc(N)n2)nc(Cl)c1-c1c(F)cc(F)cc1F)C(F)(F)F (centres unmarked) [Example 57]
19 | CC(C)[C@@H](C)Nc1nc(-n2cncn2)nc(Cl)c1-c1c(F)cc(F)cc1F [Example 60]
23 | COc1cc(F)c(-c2c(Cl)nc(-c3ccccn3)nc2NC(C)C)c(F)c1 [Example 62]
20 | COc1cc(F)c(-c2c(Cl)nc(-c3ccccn3)nc2N[C@@H](C)C(C)C)c(F)c1 [Example 65]
35 | Cc1nc(-c2nc(Cl)c(-c3c(F)cc(F)cc3F)c(N[C@H](C)C(C)C)n2)cs1 [Example 70]
25 | CCC(C)Nc1nc(-c2csc(C)n2)nc(Cl)c1-c1c(F)cc(F)cc1F (centres unmarked) [Example 71]
13 | CC1CCCN1c1nc(-n2cccn2)nc(Cl)c1-c1c(F)cc(F)cc1F (centres unmarked) [Example 74]
14 | CC1CCCN1c1nc(-n2cncn2)nc(Cl)c1-c1c(F)cc(F)cc1F (centres unmarked) [Example 75]
7.6 | CC1CCCN1c1nc(-n2ccnn2)nc(Cl)c1-c1c(F)cc(F)cc1F (centres unmarked) [Example 76]
21 | CC(Nc1nc(-c2cccnn2)nc(Cl)c1-c1c(F)cc(F)cc1F)C(F)(F)F (centres unmarked) [Example 78]

The remaining lines, values behind:

SMILES | IC50 [nM]
CC(C)Nc1nc(-c2cnccn2)nc(Cl)c1-c1c(F)cccc1Cl [Example 25] | 24
CCN(CC)c1nc(-c2cnccn2)nc(Cl)c1-c1c(F)cc(F)cc1F [Example 26] | 38
CC1CCN(c2nc(-n3cncn3)nc(Cl)c2-c2c(F)cc(F)cc2F)CC1 [Example 28] | 17
CC1CCN(c2nc(-n3ccnn3)nc(Cl)c2-c2c(F)cc(F)cc2F)CC1 [Example 29] | 17
Cc1cc(C)n(-c2nc(Cl)c(-c3c(F)cc(F)cc3F)c(N3CCC(C)CC3)n2)n1 [Example 30] | 48
CC1CCN(c2nc(-c3nccs3)nc(Cl)c2-c2c(F)cc(F)cc2F)CC1 [Example 39] | 26
Fc1cc(F)c(-c2c(Cl)nc(-c3nccs3)nc2NC2CCCC2)c(F)c1 [Example 40] | 23
Fc1cc(F)c(-c2c(Cl)nc(-n3cccn3)nc2N2CC=CCC2)c(F)c1 [Example 41] | 38
CC1CCCN(c2nc(-n3ccnn3)nc(Cl)c2-c2c(F)cc(F)cc2F)C1 (centres unmarked) [Example 42] | 18
CC1CCCN(c2nc(-n3cccn3)nc(Cl)c2-c2c(F)cc(F)cc2F)C1 (centres unmarked) [Example 43] | 19
CC1CCCN(c2nc(-n3cncn3)nc(Cl)c2-c2c(F)cc(F)cc2F)C1 (centres unmarked) [Example 44] | 18
Fc1cc(F)c(-c2c(Cl)nc(-n3ccnn3)nc2N2CC=CCC2)c(F)c1 [Example 45] | 17
CC1CCN(c2nc(-n3cncn3)nc(Cl)c2-c2c(F)cccc2Cl)CC1 [Example 47] | 26
CC1CCN(c2nc(-n3ccnn3)nc(Cl)c2-c2c(F)cccc2Cl)CC1 [Example 49] | 10
Fc1cc(F)c(-c2c(Cl)nc(-n3cccn3)nc2N2CCCCC2)c(F)c1 [Example 51] | 6.5
Fc1cc(F)c(-c2c(Cl)nc(-n3cncn3)nc2N2CCCCC2)c(F)c1 [Example 52] | 22
Fc1cc(F)c(-c2c(Cl)nc(-n3cc(Br)cn3)nc2N2CCCCC2)c(F)c1 [Example 53] | 26

SMILES | IC50 [nM]
Cc1nc(C)n(-c2nc(Cl)c(-c3c(F)cc(F)cc3F)c(N3CCCCC3)n2)n1 [Example 54] | 23
Cc1cnn(-c2nc(Cl)c(-c3c(F)cc(F)cc3F)c(N3CCCCC3)n2)c1 [Example 55] | 26
Fc1cc(F)c(-c2c(Cl)nc(-n3ccnn3)nc2N2CCCCC2)c(F)c1 [Example 56] | 11
CC1CCN(c2nc(C(N)=NO)nc(Cl)c2-c2c(F)cc(F)cc2F)CC1 [Example 58] | 26
Cc1nc(C)n(-c2nc(Cl)c(-c3c(F)cc(F)cc3F)c(N3CC=CCC3)n2)n1 [Example 59] | 43
COc1cc(F)c(-c2c(Cl)nc(-c3ccccn3)nc2N2CCC(C)CC2)c(F)c1 [Example 61] | 21
CCC(C)Nc1nc(-c2ccccn2)nc(Cl)c1-c1c(F)cc(OC)cc1F (centres unmarked) [Example 63] | 22
COc1cc(F)c(-c2c(Cl)nc(-c3ccccn3)nc2NC2CCCC2)c(F)c1 [Example 64] | 21
CC1CCN(c2nc(-n3cccn3)nc(Cl)c2-c2c(F)cccc2Cl)CC1 [Example 66] | 37
COc1cc(F)c(-c2c(Cl)nc(-n3cccn3)nc2N2CCC(C)CC2)c(F)c1 [Example 67] | 13
COc1cc(F)c(-c2c(Cl)nc(-n3cncn3)nc2N2CCC(C)CC2)c(F)c1 [Example 68] | 20
COc1cc(F)c(-c2c(Cl)nc(-n3ccnn3)nc2N2CCC(C)CC2)c(F)c1 [Example 69] | 21
Cc1nc(-c2nc(Cl)c(-c3c(F)cc(F)cc3F)c(NC3CCCC3)n2)cs1 [Example 72] | 46
CC1CCN(c2nc(-c3ccccn3)nc(Cl)c2-c2c(F)cc(O)cc2F)CC1 [Example 73] | 11
Cc1nc(C)n(-c2nc(Cl)c(-c3c(F)cc(F)cc3F)c(N3CCCC3C)n2)n1 (centres unmarked) [Example 77] | 35
CC1CCN(c2nc(-c3cccnn3)nc(Cl)c2-c2c(F)cc(F)cc2F)CC1 [Example 79] | 21
